Measurements from paper PMC11862611 (RSC Medicinal Chemistry, 2025).
Where a name gives a salt, the structure may show the parent alone. Read-outs that look alike come from different tables or passages of the source.

Key:
[1] = tested on: L. major promastigotes (FV1) WT; test: anti-promastigote assay, L. major (resazurin); assay type: cell-based; conditions: Leishmania major
Description: 4.2.3.1. Anti-promastigote assays
L. major promastigotes (FV1) WT, PX and Δ LCB2 in Schneider’s insect medium (100 μL at 1 × 106 mL−1) were incubated in 96-well plates with compounds in triplicate (amphotericin B and cycloheximide were used as positive controls, and untreated parasites with 1% DMSO as a negative control) at 26 °C for 48 h.
Resazurin Solution (10 μL) was then added and the plate incubated at 26 °C for 4 h prior to measurement using a fluorescence plate reader (555 - 585 nm). EC50 values were calculated using sigmoidal regression analysis (GraphPad Prism). […]
(§1) well-1 in a 24-well plate with round cover slips and incubated for 24 h at 37 °C and 5% CO2. […]

[2] = tested on: L. amazonensis promastigotes; test: anti-promastigote assay, L. amazonensis (resazurin); assay type: cell-based; conditions: Leishmania amazonensis
Description: 4.2.3.1. Anti-promastigote assays […]
Protocol 1: L. amazonensis promastigotes in Medium 199 (100 μL at 5 × 105 mL−1) were incubated in 96-well plates with compounds in triplicate (amphotericin B was used as a positive control, and untreated parasites with DMSO as a negative control) at 26 °C for 72 h. Resazurin Solution (10 μL) was then added and the plate incubated at 26 °C for 4 h prior to measurement using a fluorescence plate reader (555 - 585 nm). EC50 values were calculated using sigmoidal regression analysis (GraphPad Prism).
Protocol 2: Same procedure as above with the modification of a 48 h incubation time as opposed to 72 h and Leishmania amazonensis (MHOM/Br/75/JOSEFA) in Schneider’s insect medium in the place of Leishmania amazonensis (MHOM/Br/75/JOSEFA) in Medium 199. […]
as §1

L. majIPCS = target: T1, L. majIPCS (Leishmania major, UniProt E9AFX2); test: inhibition of microsomal enzyme preparation of L. majIPCS; assay type: biochemical; conditions: for inhibition at 20 µM: read-out: LmjIPCS inhibition % at 20 µM ± SD
T1 construct: made in house
T1 sequence (E9AFX2 1-338): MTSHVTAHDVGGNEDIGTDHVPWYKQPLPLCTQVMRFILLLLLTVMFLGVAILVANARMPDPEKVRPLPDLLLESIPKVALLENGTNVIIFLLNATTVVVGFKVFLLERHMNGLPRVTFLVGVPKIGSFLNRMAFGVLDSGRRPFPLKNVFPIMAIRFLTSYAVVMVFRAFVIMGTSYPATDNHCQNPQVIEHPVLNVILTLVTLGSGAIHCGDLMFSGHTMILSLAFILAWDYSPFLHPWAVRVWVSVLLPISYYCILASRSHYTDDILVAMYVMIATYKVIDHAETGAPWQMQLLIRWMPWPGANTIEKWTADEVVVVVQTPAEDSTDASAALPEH
Text: When tested against microsomal enzyme preparations of L. majIPCS[16] (Fig. 2, Table S1 ^†) the comparisons of pyrrolidine, tetrahydrofuran and cyclopentane derivatives 19, 21–23 supported earlier observations that all active compounds retained a basic nitrogen in the head group.[17] In general, whilst enzyme inhibitory activity was retained in a number of these analogues, much lower activity was observed against promastigote parasites. […] Speculating that this lower activity in promastigote parasite assays reflected a (membrane) transport issue, we then explored the corresponding ether derivative 27. Attempts to prepare this by acid catalysed ether formation failed and ultimately this was achieved through displacement of the corresponding benzylic chloride 25 (Scheme 3).
Fig. 2 Activity of a selection of simple amide and triazole linked CF analogues against a microsomal preparation of L. majIPCS and L. major promastigote parasites, respectively.

[3] = tested on: panel of neurotransmitter receptors; test: radioligand displacement assay, whole panel; assay type: binding, human
Description: 4.2.3.6. Radioligand Binding Assay (Supplemental Figure S3)
These assays were run by Eurofins under contract to LifeArc FR095-0011887. A representative protocol describing the human histamine H2 receptor (antagonist radioligand) assay is shown below.12 Cell membrane homogenates (24 µg protein) are incubated for 120 min at 22°C with 0.075 nM [125I]APT in the absence or presence of the test compound in a buffer containing 50 mM Na2HPO4/KH2PO4 (pH […]
7.4) and 0.05% BSA. […] Following

[4] = tested on: L. major PX promastigotes; test: on-target growth inhibition, add-back cell line (PX); assay type: cell-based, Leishmania major
[5] = tested on: L. amazonensis GFP promastigotes; test: mouse model of L. amazonensis infection (ear, IL dosing); assay type: in vivo, BALB/c mice; conditions: 1.2 mg kg^−1 IL twice a week for 4 weeks
Description: Consequently, we used IL dosing for this experiment. To enable direct comparison with CF, the same treatment regimen (dose of 1.2 mg kg^−1via IL injection twice a week for 4 weeks starting on DPI) was used for both compounds.
A Weight variation of mice during 28 days of treatment. B Progression of lesion thickness over 28 day treatment period. C Representative photographs of the infected ear for each group taken after completion of treatment, D parasite burden was evaluated by LDA on 36 days post infection. […]
In vivo assays were conducted as previously reported 1. Two month old BALB/c female mice, weighing 20 - 25 g and of approximately the same age were used for the study. For infection of mice, stationary phase GFP L. amazonensis promastigotes were collected, washed and suspended in sterile PBS. A volume of 10 μl of sterile PBS containing 2 x 10^6 parasites was injected into the right ear. […]
Infected ear thicknesses were measured once or twice a week with a caliper gauge, and the lesion sizes were expressed as the difference between the thickness of infected and non-infected ear. On day 41 animals were sacrificed and the fluorescence measured (485 - 528 nm) and parasite load quantified using a limiting dilution assay (LDA).
Data on lesion progression were analysed for statistical significance by using the Dunnett test as part of the one-way ANOVA (GraphPad Prism 8 software). […]

[6] = promastigote parasites (Table 1), read-out: L.mj EC50
[7] = promastigote parasites (Table 1), read-out: L.amaz EC50
[8] = 48 h, read-out: L. major promastigote EC50
[9] = promastigotes, 48 h, read-out: L. major promastigote EC50
[10] = read-out: L. amaz promastigote EC50

For `C[C@@H]1CCCN1CCCO[C@H](c1ccccc1)c1ccc(Cl)cc1` [38m], the EC50 [1, 6] was 31 nM and the EC50 [2, 7] was 42 nM.

`Clc1ccc([C@H](OCCCN2CCCC2)c2ccccc2)cc1` [38o] gave an EC50 [1, 6] of 80 nM and an EC50 [2, 7] of 100 nM.

With `C[C@H]1CCCN1CCCCOC(c1ccccc1)c1ccc(Cl)cc1` (stereo partly drawn) [38g] the EC50 [1, 6] was 1210 nM.

Work on `C[C@H]1CCCN1CCO[C@@H](c1ccccc1)c1ccc(Cl)cc1` [38i] yielded an EC50 ([1]; read-out: L.mj EC50) of 7050 nM.

In the case of `C[C@@H]1CCCN1CCO[C@@H](c1ccccc1)c1ccc(Cl)cc1` [38j], the EC50 ([1]; read-out: L.mj EC50) is reported as 11500 nM.

`CN1CCC[C@H]1CCOC(c1ccccc1)c1ccc(Cl)cc1` (stereo partly drawn) [compound 9] was tested, and the IC50 (L. majIPCS) was 4.45 µM, the inhibition at 20 µM (L. majIPCS) was 81.2 ± 10.6% and the EC50 [1, 8] was 1690 nM.

With `Clc1ccc(C(OCCN2CCCC2)c2ccccc2)cc1` (stereo not drawn) [38f] the EC50 ([2]; read-out: L.amaz EC50) was 3270 nM.

`C[C@H]1CCCN1CCOC(c1ccccc1)c1ccc(Cl)cc1` (stereo partly drawn) [38a] showed an EC50 ([1]; read-out: L.mj EC50) of 2050 nM and an EC50 ([2]; read-out: L.amaz EC50) of 3400 nM.

For `O=C(CC1CCCN1)NC(c1ccccc1)c1ccc(Cl)cc1` (stereo not drawn) [compound 21], the IC50 (L. majIPCS) was 6.95 µM, the inhibition at 20 µM (L. majIPCS; 20 µM, microsomal preparation) was 82.7% and the EC50 [1, 9] was > 33000 nM.

Work on `C[C@@H]1CCCN1CCO[C@H](c1ccccc1)c1ccc(Cl)cc1` [38k] yielded an EC50 ([1]; read-out: L.mj EC50) of 1700 nM and an EC50 ([2]; read-out: L.amaz EC50) of 3200 nM.

With `CN1CCC[C@@H]1CCO[C@H](c1ccccc1)c1ccc(Cl)cc1` [compound 35] the “binding profile across receptor panel” value [3] was “activity against a broad representation of receptor sub-types”, the EC50 [1, 8] was 130 nM and the EC50 [2, 10] was 101 nM.

`CC1(C)CCCN1CCCO[C@H](c1ccccc1)c1ccc(Cl)cc1` [38n] was tested, and the EC50 [1, 6] was 27 nM and the EC50 [2, 7] was 17 nM.

`CN(C)CCn1ncc2ccc(COC(c3ccccc3)c3ccc(Cl)cc3)cc21` (stereo not drawn) [compound 27] was tested, and the IC50 (L. majIPCS) was 4.72 µM and the EC50 [1, 9] was > 5000 nM.

`C[C@@H]1CCCN1CCOC(c1ccccc1)c1ccc(Cl)cc1` (stereo partly drawn) [38b] was tested, and the EC50 ([1]; read-out: L.mj EC50) was 2650 nM and the EC50 ([2]; read-out: L.amaz EC50) was 4100 nM.

In the case of `C[C@H]1CCCN1CCCOC(c1ccccc1)c1ccc(Cl)cc1` (stereo partly drawn) [38h], the EC50 [1, 6] is reported as 90 nM.

`CN1CCC[C@@H]1CCOC(c1ccccc1)c1ccccc1` [compound 28] showed an EC50 [1, 8] of 8440 nM and an EC50 [2, 10] of 1170 nM.

In the case of `CN1CCC[C@@H]1CCOC(c1ccccc1)c1ccc(F)cc1` (stereo partly drawn) [compound 32], the EC50 [1, 8] is reported as 2250 nM and the EC50 [2, 10] is reported as 1620 nM.

`CN1CCC[C@@H]1CCOC(c1ccccc1)c1ccc(Br)cc1` (stereo partly drawn) [compound 29] showed an IC50 (L. majIPCS) of 3.21 µM and an EC50 [1, 8] of 1360 nM.

Compound `Clc1ccc(C(OCCC2CCCN2)c2ccccc2)cc1` (stereo not drawn) [compound 7] has an IC50 (L. majIPCS) of 6.26 µM, an inhibition at 20 µM (L. majIPCS) of 78.1 ± 12.5% and an EC50 [1, 8] of 4100 nM.

In the case of `COc1ccc(C(OCC[C@H]2CCCN2C)c2ccccc2)cc1` (stereo partly drawn) [compound 30], the EC50 [1, 8] is reported as 6830 nM and the EC50 [2, 10] is reported as 500 nM.

`COC[C@H]1CCCN1CCOC(c1ccccc1)c1ccc(Cl)cc1` (stereo partly drawn) [38e] gave an EC50 ([1]; read-out: L.mj EC50) of 14400 nM and an EC50 ([2]; read-out: L.amaz EC50) of 12400 nM.

In the case of `CN1CCCC1c1cn(C(c2ccccc2)c2ccc(Cl)cc2)nn1` (stereo not drawn) [14b], the IC50 (L. majIPCS) is reported as 8.49 µM, the inhibition at 20 µM (L. majIPCS; 20 µM, microsomal preparation) is reported as 71 ± 9.7% and the EC50 [1, 9] is reported as > 33000 nM.

Work on `COC(=O)[C@H]1CCCN1CCOC(c1ccccc1)c1ccc(Cl)cc1` (stereo partly drawn) [38c] yielded an EC50 ([1]; read-out: L.mj EC50) of 23800 nM and an EC50 ([2]; read-out: L.amaz EC50) of 17400 nM.

`O=C(CC1CCCC1)NC(c1ccccc1)c1ccc(Cl)cc1` (stereo not drawn) [compound 23] showed an inhibition at 20 µM (L. majIPCS; 20 µM, microsomal preparation) of -5.4 ± 2.3%.

In the case of `O=C(NCC1CCCO1)C(c1ccccc1)c1ccc(Cl)cc1` (stereo not drawn) [compound 22], the inhibition at 20 µM (L. majIPCS; 20 µM, microsomal preparation) is reported as 2.9 ± 1.4%.

`CN1CCC[C@@H]1CCO[C@](C)(c1ccccc1)c1ccc(Cl)cc1` [1a, clemastine fumarate, reference compound] was tested, and the “sensitivity in the add-back cell line (PX)” value [4] was “Sensitivity was restored”, the “binding profile across receptor panel” value [3] was “activity against a broad representation of receptor sub-types” and the lesion growth trends ([5]; 35 days post-infection) was “similar”. The “parasitaemia (parasite burden by LDA) versus untreated group” value ([5]; LDA 36 days post infection) was “statistically significant reduction”.

Compound `OC[C@H]1CCCN1CCOC(c1ccccc1)c1ccc(Cl)cc1` (stereo partly drawn) [38d] has an EC50 ([1]; read-out: L.mj EC50) of 5880 nM and an EC50 ([2]; read-out: L.amaz EC50) of 3200 nM.

`CN1CCC[C@H]1c1cn(C(c2ccccc2)c2ccc(Cl)cc2)nn1` (stereo partly drawn) [14a] was tested, and the IC50 (L. majIPCS) was 14.5 µM, the inhibition at 20 µM (L. majIPCS; 20 µM, microsomal preparation) was 60.6 ± 9.2% and the EC50 [1, 9] was > 33000 nM.

`CN1CCC[C@@H]1CCOC(c1ccccc1)c1ccc(Cl)cc1` (stereo partly drawn) [compound 10] gave an IC50 (L. majIPCS) of 4.13 µM, an inhibition at 20 µM (L. majIPCS) of 78.1 ± 9.7% and an EC50 [1, 8] of 780 nM.

For `COc1cccc(C(OCC[C@H]2CCCN2C)c2ccccc2)c1` (stereo partly drawn) [compound 31], the EC50 [1, 8] was 8440 nM and the EC50 [2, 10] was 630 nM.

`CN1CCC[C@@H]1CCOC(c1ccc(F)cc1)c1ccc(F)cc1` [compound 33] showed an EC50 [1, 8] of 2870 nM and an EC50 [2, 10] of 2740 nM.

For `CN(C)CCn1ncc2ccc(NC(=O)C(c3ccccc3)c3ccc(Cl)cc3)cc21` (stereo not drawn) [compound 24], the IC50 (L. majIPCS) was 2.41 µM, the inhibition at 20 µM (L. majIPCS; 20 µM, microsomal preparation) was 90.2 ± 2.4% and the EC50 [1, 9] was > 10000 nM.

Work on `CN1CCC[C@@H]1CCO[C@@H](c1ccccc1)c1ccc(Cl)cc1` [compound 37] yielded an EC50 [1, 8] of 1330 nM and an EC50 [2, 10] of 1400 nM.

For `O=C(NCC1CCCN1)C(c1ccccc1)c1ccc(Cl)cc1` (stereo not drawn) [compound 19], the IC50 (L. majIPCS) was 6.9 µM, the inhibition at 20 µM (L. majIPCS; 20 µM, microsomal preparation) was 81.2 ± 1.3% and the EC50 [1, 9] was > 33000 nM.
